In US7544714B2, “Lipid-amino acid conjugates and methods of use” (University of Massachusetts, priority 2004, dated 2009):

System: 3T3 L1 fibroblasts
Assay: RT-PCR analysis of adipocyte specific transcripts as secondary test of adipocyte differentiation
Type: cell-based
Conditions: with 10 μg/ml insulin
Protocol: N-arachidonoyl-D-alanine is subjected to the Oil Red O assay, discussed in more detail supra. In the assay, 3T3 L1 fibroblasts are cultured in DMEM supplemented with 10% calf serum. Two days after confluence, cells are treated with 0.1% DMSO (vehicle), 20-100 μM N-arachidonoyl-D-alanine in vehicle, or 1 μM GW347845 (Cobb et al., J. Med. Chem., 41:5055-5069, 1998) in vehicle. Each of the three treatments is administered to the cells with 10 μg/ml of insulin. After seven days of treatment with GW347845 and 10-14 days of treatment with N-arachidonoyl-D-alanine, cells are fixed and stained with Oil Red O. Red staining indicates lipid droplets in the cytoplasm. RT-PCR analysis of expressed genes is performed as a secondary test of adipocyte differentiation. Messenger RNA from fibroblasts is harvested and RT-PCR is performed to amplify adipocyte specific transcripts, e.g., PPARγ2 and aP2, or the transcript of a ubiquitous housekeeping gene, e.g., GAPDH. PCR products are analyzed on 1% agarose gel and stained with ethidium bromide. […] Expression of the housekeeping gene GAPDH is assayed to ensure equal expression in all samples.

[1] = 20-100 μM, 10-14 days of treatment

Row | Structure (SMILES) | PPARγ2 transcript induction relative to vehicle-treated cells (RT-PCR) (1 μM, seven days of treatment) | aP2 transcript induction relative to vehicle-treated cells (RT-PCR) (1 μM, seven days of treatment) | PPARγ2 transcript induction relative to vehicle-treated cells (RT-PCR) [1] | aP2 transcript induction relative to vehicle-treated cells (RT-PCR) [1]
1 | COC(=O)c1ccccc1N[C@@H](Cc1ccc(OCCc2nc(-c3ccccc3)oc2C)cc1)C(=O)O [GW347845] | induced significantly | induced significantly | – | –
2 | CCCCC/C=C\C/C=C\C/C=C\C/C=C\CCCC(=O)N[C@H](C)C(=O)O [N-arachidonoyl-D-alanine] | – | – | induced significantly | induced significantly
